From article PMC9949657 (PLOS ONE, 2023)

Legend:
[1] = system: mouse collagen-induced arthritis (CIA) model; experiment: Histopathological evaluation in the mouse CIA model; format: in vivo; conditions: Prednisolone 3 mg/kg oral, 15 days
Method: (§1) For the mouse CIA model, male DBA/1JNCrlj mice (7 weeks old) were injected with complete Freund’s adjuvant (CFA) (BD Biosciences) containing 2 mg/mL of bovine type II collagen at a site on the back (each 0.1 mL) and were boosted 21 days later in a similar manner. Arthritis scores were determined as previously reported.
On the day after the final administration, the four limbs of each mouse were harvested and decalcified in […]. The specimens were then embedded in paraffin blocks, cut into sections, stained with hematoxylin and eosin, and randomly selected for microscopic examination. Histopathological assessments were performed as described previously. This experiment was carried out in the laboratory of the BoZo Research Center Inc. (Ibaraki, Japan).

[2] = system: mouse collagen-induced arthritis (CIA) model; experiment: Mouse CIA model, arthritis score of hind paws (21-day treatment); format: in vivo; conditions: Prednisolone 3 mg/kg oral once daily
Method: as §1

[3] = system: mouse collagen-induced arthritis (CIA) model; experiment: Mouse CIA model, arthritis score (15-day treatment); format: in vivo; conditions: Prednisolone 3 mg/kg oral once daily
Method: as §1

[4] = system: rat collagen-induced arthritis (CIA) model; experiment: Rat CIA model, hind paw volume; format: in vivo; set-up: unit not given beside the values; conditions: Prednisolone 1 mg/kg oral once daily
Method: For the rat CIA model, experimental arthritis was induced and volumes of both hind paws were measured as previously described.

[5] = system: mouse collagen-induced arthritis (CIA) model; experiment: Micro-CT imaging in the CIA model (BMD); format: in vivo; conditions: for BMD: Prednisolone 3 mg/kg oral once daily
Method: as §1
The bone morphology of CIA mice was evaluated via micro-CT using Cosmo Scan (Rigaku, Tokyo, Japan). Hind paws of the mice were scanned using the following scanning conditions: 90 kV; 88 μA; field of view, 25 mm; 2 min. The BMD was calculated using the Analyze version 11.0 software (Biomedical Imaging Resource, Mayo Clinic, Rochester, MN). The bone was determined to have a BMD value ≥480 mg/cm^3, and the region of interest for calculating the BMD included the talus and cuboid. BMD was calibrated using a QRM-MicroCT-HA phantom (Quality Assurance in Radiology and Medicine, Moehrendorg, Germany) that was scanned on each day when micro-CT of animals was performed. Calibration was performed via scanning phantoms with densities of 0, 50, 200, 800, and 1200 mg HA/cm^3, and data analysis was performed using the Analyze11.0 Bone Mineral Density Analysis procedure.

[6] = system: ovariectomized cynomolgus monkeys; set-up: method as in PMID 21497676; conditions: cited from earlier work
patients with RA = system: patients with RA; set-up: method as in PMID 31036625; conditions: compared with placebo, clinical trials for RA; cited from earlier work

C[C@]12C=CC(=O)C=C1CC[C@@H]1[C@@H]2[C@@H](O)C[C@@]2(C)[C@H]1CC[C@]2(O)C(=O)CO [Prednisolone, prednisolone]
Histological score, Bone damage [1]: 3.50
Histological score, Cartilage damage [1]: 4.75
Histological score, Inflammation [1]: 5.25
Histological score, Pannus [1]: 4.13
Arthritis score of hind paws ([2]; day 1): 7.33
Arthritis score of hind paws ([2]; day 8): 6.58
Arthritis score of hind paws ([2]; day 14): 5.75
Arthritis score of hind paws ([2]; day 22): 4.75
Arthritis score ([3]; day 1): 6.63
Arthritis score ([3]; day 4): 7.88
Arthritis score ([3]; day 8): 8.38
Arthritis score ([3]; day 11): 7.88
Arthritis score ([3]; day 15): 2.88
Hind paws volume ([4]; day 0): 2.1
Hind paws volume ([4]; day 4): 2.12
Hind paws volume ([4]; day 7): 2.09
Hind paws volume ([4]; day 11): 2.16
Hind paws volume ([4]; day 14): 2.18
Hind paws volume ([4]; day 18): 2.25
Hind paws volume ([4]; day 21): 2.37
BMD ([5]; day 1): 957.82 mg/mL
BMD ([5]; day 8): 961.86 mg/mL
BMD ([5]; day 14): 984.25 mg/mL
BMD ([5]; day 22): 1000.83 mg/mL
decline in BMD, effect compared with vehicle ([5]; Prednisolone 3 mg/kg/day, 21 days): did not exhibit significant therapeutic effects

denosumab: anti-human RANKL monoclonal antibody
BMD and bone strength [6]: improved
bone erosion progression (patients with RA): inhibited
